Measured values: patent publication US8614201B2 (Janssen Pharmaceutica NV, priority 2009, dated 2013)

Biological target: Human TRPA1 (Homo sapiens, UniProt O75762)
Assay: Alternative TRPA1 Ca2+ fluorometry assay (hTRPA1/TREx-HEK293 cells, Fluo-4, FDSS 6000)
Assay type: cell-based
Parameters: expressed in transfected cells
Settings: Fluo-4-AM, agonist 6,11-dihydro-5H-dibenzo[b,e]azepine-10-carboxylic acid methyl ester 25 nM, procedure used for Examples 184, 190 to 192, 194 to 316
Experimental: In alternative embodiments, the assay was performed using the following procedure for Examples 184, 190 to 192, and 194 to 316:
The human TRPA1 gene was cloned into the pT-Rex-Dest30 inducible vector and stably transfected in T-Rex™-293 cells (Invitrogen, Merelbeke, Belgium). This tetracycline inducible hTRPA1 expression system was used in order to prevent CA^2+ overload in the cultured cells due to sustained TRPA1 expression. hTRPA1/TREx-HEK293 cells (referred to as jTRPA1 cells in the following text) were maintained under standard sterile cell culture conditions. The culture medium for the jTRPA1-HEK cells was DMEN (Gibco BRL, Invitrogen, Merelbeke, Belgium) supplemented with 5 g/l gengticin (Gibco), 5 mL/l blasticidin (Invitorgen), 14.6 g/l L-Glutamine (200 mMl; Gibco), 5 g/l penicillin/streptomycin (5.10-6 IU/I, Gibco), 5.5 g/l pyruvic acid (Gibco) and 10% foetal calf serum (Hyclone, Logan Utah, USA).
For Ca^2+ fluorometry experiments, hTRPA1-HEK cells were resuspended in HBSS seeding medium: HBSS (with CaCl2 and MgCl2: Gibco) supplemented with 14.6 g/l L-Glutamine (200 mM; Gibco), 5 g/l penicillin/streptomycin (5.10-6 IU/l. Gibco), 5.5 g/l pyruvic acid (Gibco) and 10% foetal calf serum (heat inactivated for 30 minutes at 56° C.; Hyclone, Logan Utah, USA). The cells were seeded in poly-D-lysine-coated 384-well round bottom polypropylene plates (Costar Corning, Data Packaging, Cambridge Mass., USA) at 12000 cells/well. Fifty ng/ml tetracycline was added to induce the hTRPA1 expression 24 h before the experiment.
The cells were loaded with 5 mg/l Fluo-4-AM (Molecular Probes, Invitorgen, Merelbeke, Belgium) dissolved in HBSS seeding medium supplemented with 0.7 g/l Probenecid (Sigma) and incubated for 1 h at 37° C. and subsequently at 20° C. for 1 to 2 h. The fluorescence was measured in the FDSS 6000 imaging based plate reader (Hamamutsu Photonics K.K., Hamamutsu City, Japan). The excitation wavelength was 488 nm and the emission wavelength 540 nm. After a control period of 12 seconds the inventive compounds were added and the Ca^2+ signal was measured within 14 minutes after application. Finally, a TRPA1 agonist, 6,11-dihydro-5H-dibenzo[b,e]azepine-10-carboxylic acid methyl ester, was added at a final concentration of 25 nM. The emission ratio was calculated by dividing the emission signal (Em540) by the first EM540 signal of the control period to compensate for the background fluorescence. […] For intracellular Ca^2+ measurements, a compound stock solution (10 to 100 mM) was further diluted in DMSO in order to obtain a final 1% DMSO concentration in the extracellular solution.

Sequence of Human TRPA1 (O75762 whole entry): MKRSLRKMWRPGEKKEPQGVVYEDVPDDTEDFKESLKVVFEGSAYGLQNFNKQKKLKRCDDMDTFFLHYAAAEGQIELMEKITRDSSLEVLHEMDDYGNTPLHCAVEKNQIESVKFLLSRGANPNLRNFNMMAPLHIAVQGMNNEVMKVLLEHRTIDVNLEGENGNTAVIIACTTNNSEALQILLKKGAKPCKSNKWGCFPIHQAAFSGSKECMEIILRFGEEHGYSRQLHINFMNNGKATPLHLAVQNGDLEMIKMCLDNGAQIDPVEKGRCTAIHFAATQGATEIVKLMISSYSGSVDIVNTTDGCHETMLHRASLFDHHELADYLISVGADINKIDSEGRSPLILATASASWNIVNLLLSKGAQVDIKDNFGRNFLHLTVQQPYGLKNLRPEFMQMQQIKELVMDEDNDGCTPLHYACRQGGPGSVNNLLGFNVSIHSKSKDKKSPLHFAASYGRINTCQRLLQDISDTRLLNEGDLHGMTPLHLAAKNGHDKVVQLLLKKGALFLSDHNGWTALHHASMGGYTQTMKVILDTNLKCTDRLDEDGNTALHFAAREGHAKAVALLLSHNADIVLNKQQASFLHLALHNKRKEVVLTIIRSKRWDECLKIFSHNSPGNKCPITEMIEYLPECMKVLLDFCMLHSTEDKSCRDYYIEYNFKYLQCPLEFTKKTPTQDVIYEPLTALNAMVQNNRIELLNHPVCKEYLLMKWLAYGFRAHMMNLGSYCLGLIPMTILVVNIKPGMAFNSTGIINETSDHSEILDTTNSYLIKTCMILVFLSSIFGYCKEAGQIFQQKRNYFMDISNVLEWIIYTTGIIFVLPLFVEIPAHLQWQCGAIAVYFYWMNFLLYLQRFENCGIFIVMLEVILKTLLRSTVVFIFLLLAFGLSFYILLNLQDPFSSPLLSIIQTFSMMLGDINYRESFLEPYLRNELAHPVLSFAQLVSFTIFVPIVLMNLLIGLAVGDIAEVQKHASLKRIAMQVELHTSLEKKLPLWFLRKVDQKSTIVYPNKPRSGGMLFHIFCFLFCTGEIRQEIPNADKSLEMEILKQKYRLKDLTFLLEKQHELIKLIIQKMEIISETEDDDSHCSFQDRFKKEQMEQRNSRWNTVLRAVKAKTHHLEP

Compound	IC50 [nM]
O=C(NCc1cc(-c2ccc3c(c2)OCO3)nc(N2CCOCC2)n1)[C@@H]1CCCN1S(=O)(=O)c1ccc(F)cc1 [Example 207, 1-(4-Fluoro-benzenesulfonyl)-pyrrolidine-2S-carboxylic acid (6-benzo[1,3]dioxol-5-yl-2-morpholin-4-yl-pyrimidin-4-ylmethyl)-amide]	9120
O=C(NCc1cc(-c2ccc3c(c2)OCO3)nc(N2CCc3ccccc3C2)n1)[C@@H]1CCCN1S(=O)(=O)c1ccc(F)cc1 [Example 208, 1-(4-Fluoro-benzenesulfonyl)-pyrrolidine-2S-carboxylic acid [6-benzo[1,3]dioxol-5-yl-2-(3,4-dihydro-1H-isoquinolin-2-yl)-pyrimidin-4-ylmethyl]-amide]	2290
C#CCNc1nc(CNC(=O)[C@@H]2CCCN2S(=O)(=O)c2ccc(F)cc2)cc(-c2ccc(Br)cc2)n1 [Example 209, 1-(4-Fluoro-benzenesulfonyl)-pyrrolidine-2S-carboxylic acid [6-(4-bromo-phenyl)-2-prop-2-ynylamino-pyrimidin-4-ylmethyl]-amide]	1000
O=C(NCc1cc(-c2ccc(Br)cc2)nc(N[C@@H](CO)Cc2ccccc2)n1)[C@@H]1CCCN1S(=O)(=O)c1ccc(F)cc1 [Example 210, 1-(4-Fluoro-benzenesulfonyl)-pyrrolidine-2S-carboxylic acid [6-(4-bromo-phenyl)-2-(1S-hydroxymethyl-2-phenyl-ethylamino)-pyrimidin-4-ylmethyl]-amide]	4570
O=C(NCc1cc(-c2ccc(Br)cc2)nc(NC2CCCC2)n1)[C@@H]1CCCN1S(=O)(=O)c1ccc(F)cc1 [Example 211, 1-(4-Fluoro-benzenesulfonyl)-pyrrolidine-2S-carboxylic acid [6-(4-bromo-phenyl)-2-cyclopentylamino-pyrimidin-4-ylmethyl]-amide]	~1620
CC(Nc1nc(CNC(=O)[C@@H]2CCCN2S(=O)(=O)c2ccc(F)cc2)cc(-c2ccc(Br)cc2)n1)c1ccccc1 (stereo partly drawn) [Example 212, 1-(4-Fluoro-benzenesulfonyl)-pyrrolidine-2S-carboxylic acid [6-(4-bromo-phenyl)-2-(1(R,S)-phenyl-ethylamino)-pyrimidin-4-ylmethyl]-amide]	676
O=C(NCc1cc(-c2ccc(Br)cc2)nc(N2CCC(Cc3ccccc3)CC2)n1)[C@@H]1CCCN1S(=O)(=O)c1ccc(F)cc1 [Example 213, 1-(4-Fluoro-benzenesulfonyl)-pyrrolidine-2S-carboxylic acid [2-(4-benzyl-piperidin-1-yl)-6-(4-bromo-phenyl)-pyrimidin-4-ylmethyl]-amide]	2400
CCOC(=O)C1CCN(c2nc(CNC(=O)[C@@H]3CCCN3S(=O)(=O)c3ccc(F)cc3)cc(-c3ccc(Br)cc3)n2)CC1 [Example 214, 1-[4-(4-Bromo-phenyl)-6-({[1-(4-fluoro-benzenesulfonyl)-pyrrolidine-2S-carbonyl]-amino}-methyl)-pyrimidin-2-yl]-piperidine-4-carboxylic acid ethyl ester]	~977
CCCCNc1nc(CNC(=O)[C@@H]2CCCN2S(=O)(=O)c2ccc(F)cc2)cc(-c2ccc(Br)cc2)n1 [Example 215, 1-(4-Fluoro-benzenesulfonyl)-pyrrolidine-2S-carboxylic acid [6-(4-bromo-phenyl)-2-butylamino-pyrimidin-4-ylmethyl]-amide]	1020
O=C(NCc1cc(-c2ccc(Br)cc2)nc(N2CCN(c3ccccn3)CC2)n1)[C@@H]1CCCN1S(=O)(=O)c1ccc(F)cc1 [Example 216, 1-(4-Fluoro-benzenesulfonyl)-pyrrolidine-2S-carboxylic acid [6-(4-bromo-phenyl)-2-(4-pyridin-2-yl-piperazin-1-yl)-pyrimidin-4-ylmethyl]-amide]	1200
O=C(NCc1cc(-c2ccc(Br)cc2)nc(N2CCOCC2)n1)[C@@H]1CCCN1S(=O)(=O)c1ccc(F)cc1 [Example 217, 1-(4-Fluoro-benzenesulfonyl)-pyrrolidine-2S-carboxylic acid [6-(4-bromo-phenyl)-2-morpholin-4-yl-pyrimidin-4-ylmethyl]-amide]	871
CN1CCCN(c2nc(CNC(=O)[C@@H]3CCCN3S(=O)(=O)c3ccc(F)cc3)cc(-c3ccc(Br)cc3)n2)CC1 [Example 218, 1-(4-Fluoro-benzenesulfonyl)-pyrrolidine-2S-carboxylic acid [6-(4-bromo-phenyl)-2-(4-methyl-[1,4]diazepan-1-yl)-pyrimidin-4-ylmethyl]-amide]	> 10000
O=C(NCc1cc(-c2ccc(Br)cc2)nc(NCc2cccnc2)n1)[C@@H]1CCCN1S(=O)(=O)c1ccc(F)cc1 [Example 219, 1-(4-Fluoro-benzenesulfonyl)-pyrrolidine-2S-carboxylic acid {6-(4-bromo-phenyl)-2-[(pyridin-3-ylmethyl)-amino]-pyrimidin-4-ylmethyl}-amide]	~2690
CN1CCN(c2nc(CNC(=O)[C@@H]3CCCN3S(=O)(=O)c3ccc(F)cc3)cc(-c3ccc(Br)cc3)n2)CC1 [Example 220, 1-(4-Fluoro-benzenesulfonyl)-pyrrolidine-2S-carboxylic acid [6-(4-bromo-phenyl)-2-(4-methyl-piperazin-1-yl)-pyrimidin-4-ylmethyl]-amide]	~4470
O=C(NCc1cc(-c2ccc(Br)cc2)nc(NCCc2ccc(Cl)cc2Cl)n1)[C@@H]1CCCN1S(=O)(=O)c1ccc(F)cc1 [Example 221, 1-(4-Fluoro-benzenesulfonyl)-pyrrolidine-2S-carboxylic acid {6-(4-bromo-phenyl)-2-[2-(2,4-dichloro-phenyl)-ethylamino]-pyrimidin-4-ylmethyl}-amide]	2040
O=C(NCc1cc(-c2ccc(Br)cc2)nc(N2CCc3ccccc3C2)n1)[C@@H]1CCCN1S(=O)(=O)c1ccc(F)cc1 [Example 222, 1-(4-Fluoro-benzenesulfonyl)-pyrrolidine-2S-carboxylic acid [6-(4-bromo-phenyl)-2-(3,4-dihydro-1H-isoquinolin-2-yl)-pyrimidin-4-ylmethyl]-amide]	9120
O=C(NCc1cc(-c2ccc3c(c2)OCO3)nc(Nc2cccc(Cl)c2)n1)[C@@H]1CCCN1S(=O)(=O)c1ccc(F)cc1 [Example 223, 1-(4-Fluoro-benzenesulfonyl)-pyrrolidine-2S-carboxylic acid [6-benzo[1,3]dioxol-5-yl-2-(3-chloro-phenylamino)-pyrimidin-4-ylmethyl]-amide]	> 10000
O=C(NCc1cc(-c2ccc3c(c2)OCO3)nc(Nc2ccc(Cl)cc2)n1)[C@@H]1CCCN1S(=O)(=O)c1ccc(F)cc1 [Example 224, 1-(4-Fluoro-benzenesulfonyl)-pyrrolidine-2S-carboxylic acid [6-benzo[1,3]dioxol-5-yl-2-(4-chloro-phenylamino)-pyrimidin-4-ylmethyl]-amide]	> 10000
O=C(NCc1cc(-c2ccc3c(c2)OCO3)nc(Nc2ccc(F)cc2)n1)[C@@H]1CCCN1S(=O)(=O)c1ccc(F)cc1 [Example 225, 1-(4-Fluoro-benzenesulfonyl)-pyrrolidine-2S-carboxylic acid [6-benzo[1,3]dioxol-5-yl-2-(4-fluoro-phenylamino)-pyrimidin-4-ylmethyl]-amide]	2510
O=C(NCc1cc(-c2ccc(OC(F)(F)F)cc2)nc(N2CCN(c3ccccc3F)CC2)n1)[C@@H]1CCCN1S(=O)(=O)c1ccc(F)cc1 [Example 226, 1-(4-Fluoro-benzenesulfonyl)-pyrrolidine-2S-carboxylic acid [2-[4-(2-fluoro-phenyl)-piperazin-1-yl]-6-(4-trifluoromethoxy-phenyl)-pyrimidin-4-ylmethyl]-amide]	115
O=C(NCc1cc(-c2ccc(F)cc2)nc(N2CCN(c3ccccc3F)CC2)n1)[C@@H]1CCCN1S(=O)(=O)c1ccc(F)cc1 [Example 227, 1-(4-Fluoro-benzenesulfonyl)-pyrrolidine-2S-carboxylic acid {6-(4-fluoro-phenyl)-2-[4-(2-fluoro-phenyl)-piperazin-1-yl]-pyrimidin-4-ylmethyl}-amide]	1170
COc1cccc(OC)c1-c1cc(CNC(=O)[C@@H]2CCCN2S(=O)(=O)c2ccc(F)cc2)nc(N2CCN(c3ccccc3F)CC2)n1 [Example 228, 1-(4-Fluoro-benzenesulfonyl)-pyrrolidine-2S-carboxylic acid {6-(2,6-dimethoxy-phenyl)-2-[4-(2-fluoro-phenyl)-piperazin-1-yl]-pyrimidin-4-ylmethyl}-amide]	2290
